The source of these data is patent publication US20260284240A1, “RADIOLABELED COMPOUND FOR USE IN A METHOD OF TREATING CARBONIC ANHYDRASE IX POSITIVE DISEASES” (DEBIOPHARM INTERNATIONAL S.A., priority 2023, published 2026).

Molecules are shown by their SMILES. Where two headings read alike, the source gives them in different places. Starred links: 1 amine or outer side, 2 acyl side, 3 side chain; linkers in the order of their positions; H or OH if unused. Positions of bridges follow the written chain, without caps; N, C: chain ends. Non-standard residues stand in square brackets, D forms with d. Residues, ends and D or L forms follow the SMILES beside them. *: point of attachment. Phe(3-NHCO(CH2)3SO2NH2) = N[C@@H](Cc1cccc(NC(=O)CCCS(N)(=O)=O)c1)C(=O)O; DOTA = O=C(O)CN1CCN(CC(=O)O)CCN(CC(=O)*)CCN(CC(=O)O)CC1; mXylylene = c1cc(C[*:1])cc(C[*:2])c1; X1 = O=C(CN1CCN([*:1])CC1)[*:2]

Series [1] is described as follows: Pharmacokinetics after single i.v. dose in healthy male CD-1 mice. The format is in vivo. The settings on record: urine, iv, mouse, read-out: Injected dose retrieved from urine unchanged over 8 hours. How it is done: The pharmacokinetics of DPI-4452 after a single intravenous (i.v.) dose were investigated in healthy mice. […] Plasma and urine samples collected after dosing were analyzed using a LC-HRMS (liquid chromatography coupled with high-resolution mass spectrometry) assay method. Concentration values were used for pharmacokinetic calculations.
Male CD-1 mice (3 animals per time point and per dose level; overall, 28.2-37.6 g body weight) were administered intravenously in the tail vein in a 2 mL/kg dosing volume. Blood samples were collected in K2EDTA tubes at 5 min, 15 min, 30 min, 1 h, 2 h, 4 h, 8 h, and urine was collected over 8 hours post dose. […]
Plasma and urine samples were analyzed by LC-HRMS after solid phase extraction, using a stable isotope-labeled internal standard (^13C6, ^15N-DPI-4452). […] The lower limit of quantification was 1.00 ng/mL in plasma and urine.
The non-compartmental (NCA) pharmacokinetic analysis of plasma concentration data was conducted using Phoenix 64 WinNonlin (Build 8.3.3.33) software. […] The terminal phase half-life (T1/2) was calculated by least-squares regression analysis of the terminal linear part of the log concentration-time curve. The area under the plasma concentration-time curve (AUC) was determined with the linear trapezoidal rule for increasing values and log trapezoidal rule for decreasing values up to the last measurable concentration.

Series [2] relates to HT-29 tumor. The series can be described thus: Biodistribution of In-111-labeled compounds by SPECT/CT in HT-29 tumor-bearing mice. The format is in vivo, mouse. How it is done: (§1) The effect on tumor uptake of prior injection of gelofusine for kidney protection was investigated in mice bearing the SK-RC-52 tumor. Biodistribution was evaluated using in vivo SPECT/CT imaging. Prior to the in vivo study the compounds (ligands) were initially radiolabeled with In-111 and the stability of radiolabeled compounds was evaluated in buffer at three different timepoints.
(§2) The study was performed in female NMRI nude mice (approximately 6 weeks of age) from Janvier Labs, France, housed up to 5 mice per cage.
(§3) The column was washed with 2 mL water, and then the final product was eluted from the column in EtOH solution (50%) • The sample was formulated in PBS to the final concentration of 150 MBq/mL and 5 nmol/mL.
(§4) SK-RC-52 cells were cultured in RPMI 1640 with GlutaMax-I (Thermo Fisher Scientific #61870044) supplemented with 10% fetal bovine serum+1% penicillin/streptomycin, harvested, washed twice in RPMI 1640 and resuspended at 2×10^7 cells/mL in RPMI 1640. HT-29 cells were cultured in McCoy's 5a Medium Modified (Sigma #M9309). For inoculation of HT-29 cells, cells were harvested, washed twice in PBS and resuspended at 5×10^7 cells/mL in PBS. Cells were kept on ice until inoculation.
(§5) Animals were anaesthetized (isoflurane, 2-4% in ambient air supplemented with 100% O2) prior to tumor inoculation. The tumor cells (100 μL suspension of either SK-RC-52 cells (2×10^6 cells/animal) or HT-29 cells (5×10^6 cells/animal)) were subcutaneously inoculated in the right flank using a 1-mL syringe equipped with a 27G needle. Tumor growth and animal weight were measured twice per week. Tumor size was measured by caliper and the volume was estimated using the following formula: 0.52×(length×width^2). When tumor sizes reached 150-250 mm^3, animals were randomized into groups (n=3) of similar average tumor volume and body weight.
(§6) Animals were injected intravenously with In-111-labeled compounds (single bolus, 22.3-31.2 MBq, ~1 nmol ligand, injection volume: 100 μL) in the lateral tail vein using a 29G syringe.
(§7) CT was performed with helical scan, 300 ms exposure, reconstruction resolution of 250 μm. SPECT was performed with multi-pinhole scan and a 30 s frame time. For the quantification of the radioactivity uptake, regions of interests (ROIs) were drawn over the tumor, kidney, liver, and heart (estimate of blood) identified on the images. Uptake was expressed as percent of injected dose per gram tissue (% ID/g).

Assay in series [3]: as above
Format: in vivo, mouse. The settings on record: mouse. How it is done: as §1, §2, §3, §4, §5, §6, §7

A short description of series [4]: Dose range finding toxicity study by i.v. bolus in male beagle dogs. Format: in vivo, dog. The settings on record: i.v. bolus up to 800 μg/kg. How it is done: The following parameters and endpoints were evaluated: mortality, clinical observations, body weights, food consumption, local reactions, clinical pathology parameters (hematology, coagulation, and clinical chemistry), organ weights, and macroscopic examinations. Both animals were sampled for toxicokinetics (TK) on each dosing occasion (i.e., on day 1, day 5, day 9 and day 13) at: pre-dose, 15 min, 30 min, 1 h, 6 h and 24 h. Blood samples were collected in K2EDTA tubes. Plasma was prepared by centrifugation (2500 g for 10 minutes, +4° C.) within 1 hour after collection, and then frozen within 1 hour after centrifugation and stored at −80° C. […] Chromatographic separation was achieved using a Waters Acquity UPLC system with a Waters Acquity HSS T3 C18 2.1×50 mm, 1.8 μm column. Chromatography was conducted at 50° C. at a flow rate of 0.7 mL/min using a mobile phase consisting of A: acetonitrile, and B: 1% formic acid in water, according to the following linear gradient: 0 to 0.1 min: 90% B; 0.1 to 4.1 min: from 90% B to 74% B; 4.1 to 4.2 min: from 74% B to 5% B; 4.2 to 4.6 min: 5% B; 4.6 to 4.7 min: from 5% B to 90% B; 4.7-5.1 min; 90% B. Detection was performed using a Sciex AP16600 TOF mass spectrometer. Toxicokinetic parameters were estimated from concentration-time data using Phoenix pharmacokinetic software (version 6.4, Certara L.P.). […]

Take `CC(C)C[C@@H]1NC(=O)[C@H](Cc2cccc(NC(=O)CCCS(N)(=O)=O)c2)NC(=O)[C@H](CC(=O)O)NC(=O)[C@H]2CCCN2C(=O)[C@H](CCC(=O)O)NC(=O)[C@@H](NC(=O)[C@H](CCC(N)=O)NC(=O)CN2CCN(C(=O)CN3CCN(CC(=O)O)CCN(CC(=O)O)CCN(CC(=O)O)CC3)CC2)CSCc2cccc(c2)CSC[C@@H](C(N)=O)NC(=O)[C@H](CO)NC(=O)[C@H](Cc2c[nH]c3ccccc23)NC(=O)[C@H]([C@@H](C)O)NC1=O` [DPI-4452, DOTA-PPAc-Gln-[Cys(3MeBn)-Glu-pro-Asp-Af3(Cpsu)-Leu-Thr-Trp-Ser-Cys]-NH2] ({DOTA}-[X1]QCE[dP]D[Phe(3-NHCO(CH2)3SO2NH2)]LTWSC-NH2; linker 3-12 via mXylylene): the dose excreted at 8 h in series [1] (i.v. 0.7 mg/kg) was 3.57%. Also, the dose excreted at 8 h in series [1] (i.v. 5.5 mg/kg) amounted to 8.89%. For the same compound, in series [2] (HT-29), the “% remaining tumor uptake at 24 h p.i.” value is reported as 65.8 ± 3.8% and the “Time to peak uptake in tumor” value was determined as 2 h. Also, in series [2] (HT-29 mice), the “Blood uptake at 4 h p.i.” value is listed as 0.04 ± 0.002 % ID/g, the “Kidney uptake at 24 h p.i.” value is on record as 1.41 ± 0.11 % ID/g and the “Liver uptake at 4 h p.i.” value is 0.12 ± 0.005 % ID/g. Further, the tissue uptake in series [3] (ht-29 tumor, HT-29, Mean ± SEM, N=3, read-out: Peak Tumor Uptake) worked out at 5.21 ± 1.22 %ID/g. The tissue uptake in series [3] (kidney, HT-29 mice, read-out: Peak Kidney uptake) is 5.37 ± 1.45 %ID/g. Further, the Tolerability result in series [4] was “well tolerated systemically and locally”.
